Source: US20060252798A1, “Metal ion chelators and therapeutic use thereof” (priority 2003, published 2006)

Legend:
[1] = Mouse weight loss and haematological indices in M109-bearing mice; assay type: in vivo; details: Triapine 6 mg/kg; Mean ± SEM
Protocol: The tumour cells were passaged in CD2F1 mice by preparing a brei from the tumour and injecting it sc.^20 Dp44mT was dissolved in 30% (v/v) propylene glycol in saline and injected iv 4 days after tumour engraftment, twice daily for 5 days followed by a “rest period” of 2 days when the animal was not injected. On the twelfth day after tumour implantation, mice were sacrificed using methoxyfluorane and cardiac puncture performed. Blood counts and erythrocyte indices were measured using a Sysmex Blood Counter (Prince of Wales Hospital, Sydney, Australia). Mouse body weight changes during the treatment period were recorded. The tumours were weighed and fixed for histological examination. The experimental groups consisted of eight mice for the control and each treatment (Table 5).

M109 lung carcinoma = experiment: Inhibition of M109 lung carcinoma growth in vivo; parameters: species or system mouse; details: 6 mg/kg (MTD), day 12
Protocol: Inhibition of M109 Lung Cancer Cell Growth by Iron Chelators In Vivo Female CD2F1 mice aged 8-10 weeks old were sc implanted with 1×10^5 M109 cells. The tumour cells were passaged in CD2F1 mice by preparing a brei from the tumour and injecting it sc.^20 Dp44mT was dissolved in 30% (v/v) propylene glycol in saline and injected iv 4 days after tumour engraftment, twice daily for 5 days followed by a “rest period” of 2 days when the animal was not injected. On the twelfth day after tumour implantation, mice were sacrificed using methoxyfluorane and cardiac puncture performed. Blood counts and erythrocyte indices were measured using a Sysmex Blood Counter (Prince of Wales Hospital, Sydney, Australia). Mouse body weight changes during the treatment period were recorded. The tumours were weighed and fixed for histological examination. The experimental groups consisted of eight mice for the control and each treatment (Table 5).
As a relevant positive control, animals were administered Triapine® at its MTD (6 mg/kg). The tumour weight was measured on the twelfth day after the tumour cell implantation.

[2] = tested on: SK-N-MC neuroepithelioma cells; experiment: MTT cellular proliferation assay, SK-N-MC; assay type: cell-based, human; details: Homo sapiens, SK-N-MC; Table 3; 0-25 μM, 72 h, MTT; mean ± SD; read-out: IC50 SK-N-MC neuroepithelioma
Protocol: […] […] After this incubation, 0.01 mL of MTT was added to each well and the plates incubated for 2 h at 37° C. The cells were then solubilised by adding 0.1 mL of 10% SDS-50% isobutanol in 0.01 M HCl and the plates then read at 570 nm on a scanning multiwell spectrophotometer (Titertek Multiscan; Beckman Instruments Inc, California). MTT colour formation was directly proportional to the number of viable cells.
The effect of the compounds on the proliferation of SK-N-MC neuroepithelioma cells was examined using the MTT assay (described above).
(§1) Dp2mT served as a negative control.

SK-Mel-28 melanoma cells = experiment: MTT cellular proliferation assay, SK-Mel-28; assay type: cell-based, human; details: Homo sapiens, SK-MEL-28, 72 h, Table 3, mean ± SD
Protocol: The final concentration of the compounds was 0.39-50 μM. […] […] After this incubation, 0.01 mL of MTT was added to each well and the plates incubated for 2 h at 37° C. The cells were then solubilised by adding 0.1 mL of 10% SDS-50% isobutanol in 0.01 M HCl and the plates then read at 570 nm on a scanning multiwell spectrophotometer (Titertek Multiscan; Beckman Instruments Inc, California). MTT colour formation was directly proportional to the number of viable cells.
as §1
(§2) Dp2mT served as a negative control as the methyl group at the 2-position hinders Fe-chelation.

[3] = Maximum tolerated dose in CD2F1 hybrid mice; assay type: in vivo; details: female, CD2F1, mouse, in vivo, iv
Protocol: BALB/c and DBA/2 mice were obtained from Animal Resources Centre (University of New South Wales (UNSW), Sydney, Australia) and crossed to produce CD2F1 animals (all procedures used were approved by the Animal Ethics Committee, UNSW). Groups of eight female CD2F1 mice (8-10 weeks old) were fed and watered ad-libitum, and injected via the tail vein with compounds being studied in 30% propylene glycol in 0.9% sterile saline, twice a day, 6 h apart, 5 days/week for 2 weeks. The maximum tolerated dose (MTD) was defined as the dose at which 30% of a cohort either died or lost weight in excess of 10%.^19

[4] = tested on: MCF-7 breast cancer cells; experiment: MTT cellular proliferation assay, MCF-7; assay type: cell-based, human; details: Homo sapiens, MCF7, 72 h, Table 3; 72 h, MTT; mean ± SD; read-out: IC50 MCF-7 breast cancer
Protocol: […] […] […] After this incubation, 0.01 mL of MTT was added to each well and the plates incubated for 2 h at 37° C. The cells were then solubilised by adding 0.1 mL of 10% SDS-50% isobutanol in 0.01 M HCl and the plates then read at 570 nm on a scanning multiwell spectrophotometer (Titertek Multiscan; Beckman Instruments Inc, California). MTT colour formation was directly proportional to the number of viable cells.
as §1, §2

Compound NC(=S)NN=Cc1ncccc1N [Triapine, 3-aminopyridine-2-carboxaldehyde thiosemicarbazone] has a Body weight loss [1] of 5.3 ± 0.4 g, a Haematocrit [1] of 0.28 ± 0.01 and a Haemoglobin [1] of 8.6 ± 0.5 g/dL. The Platelets [1] was 976 ± 171 10^9/L, the RBC [1] was 6.1 ± 0.4 10^12/L and the WBC [1] was 1.4 ± 0.3 10^9/L. For the same compound, the tumour weight (M109 lung carcinoma) was 10 % of the control, the IC50 [2] was 260 nM and the IC50 (SK-Mel-28 melanoma cells) was 2600 ± 600 nM. For the same compound, the MTD at 2 weeks [3] was 6 mg/kg and the IC50 [4] was 3000 ± 1500 nM.
